Source: patent US20040235874A1, “Fungicidal composition comprising pyrimethanil and iprodione” (priority 2001, published 2004)

Experiments:
Type in all cases: in vivo
[1] = test system: Ascochyta pisi; assay: Control of Ascochyta pisi on protein-rich peas; details: pea Baccara, 23 days after second application
Excerpt: This example illustrates the efficacy of a composition according to the invention which comprises pyrimethanil and iprodione as active ingredients for controlling Ascochyta pisi on protein-rich peas. The following fungicidal compounds are compared: […] pyrimethanil at the dose of 600 g/ha, […] Two successive […] carried out on pea plants (Baccara variety) at the flowering stages and then two weeks after the first application. 23 days after the second application, the percentage of diseased leaves and pods is calculated; the results are presented in table 5.

[2] = test system: Alternaria porri; assay: Control of Alternaria porri on onion, yield at harvest; details: for Yield (kg/ha): onion bulbs, harvest 32 days after last of 5 applications; for Yield gain (%): onion, compared with the untreated control
Method: This example illustrates the efficacy of a composition according to the invention which comprises pyrimethanil and iprodione as active ingredients for controlling Alternaria porri on onion.
The following fungicidal compounds are compared:
iprodione at the dose of 750 g/ha,
pyrimethanil at the dose of 600 g/ha,
iprodione+pyrimethanil at the doses of 300+150 g/ha to be applied in a mixture volume of 1 000 l/ha.
A total of 5 successive preventive sprayings are carried out on onion plants which were initially 31 days old and at a rhythm of 13 days.
32 days after the last application, harvesting is carried out and the yield is calculated in terms of kg of bulbs/ha and the yield gain expressed by comparing with the untreated control.

[3] = test system: Alternaria dauci; assay: Field control of Alternaria dauci on carrot; details: carrot Nantes
Excerpt: This example illustrates the efficacy of a composition according to the invention which comprises pyrimethanil and iprodione as active ingredients for controlling alternaria dauci on carrot. The following fungicidal compounds are compared: iprodione at the dose of 750 g/ha, pyrimethanil at the dose of 600 g/ha, […] The products are applied to carrot (Nantes variety) which is sensitive to Alternaria dauci. The various products to be studied are sprayed at the rate of 3 applications in total with intervals of 8 days between the 1st and 2nd applications and of 10 days between the 2nd and 3rd application. Scores for the disease (percentage of foliar surface area destroyed) are awarded 7 days after the 1st and 2nd applications and then 3 days and 8 days after the 3rd application.

[4] = test system: Sclerotinia sclerotinium; assay: Control of Sclerotinia on lettuce, counting of attacked plants; details: lettuce Manita
Method: This sample illustrates the efficacy of a composition according to the invention which comprises pyrimethanil and iprodione as active ingredients for controlling Sclerotinia sclerotinium on lettuce. The following fungicidal compounds are compared: iprodione at the dose of 750 g/ha, pyrimethanil at the dose of 800 g/ha, […] A total of 5 […] carried out on lettuce plants ([…] variety). An inoculation with Sclerotinia is carried out the next day after the first treatment by spreading contaminated rape plant stems on the soil. 11 countings of the lettuce plants attacked by Schlerotinia are carried out throughout the trial.

[5] = test system: Alternaria solani; assay: Field control of Alternaria solani on potato; details: potato Bintje
Excerpt: This example illustrates the efficacy of a composition according to the invention which comprises pyrimethanil and iprodione as active ingredients for controlling Alternaria solani on the potato. […] The following fungicidal compounds are compared: iprodione at the dose of 750 g/ha, pyrimethanil at the dose of 600 g/ha, […] The products are applied to potato (Bintje variety) which is sensitive to Alternaria solani. […] mancozeb—product tested—mancozeb—product tested—mancozeb—product tested. Scores for the disease (percentage of foliar surface area destroyed) are awarded 15 days after the second application of the experiment products (15 DAB), 8 days and 17 days after the third application of the experimental products (8 DAC and 17 DAC).

CC(C)NC(=O)N1CC(=O)N(c2cc(Cl)cc(Cl)c2)C1=O [iprodione]
Amount of diseased leaves (%) ([1]; 500 g/ha, first column): 46%
Amount of diseased leaves (%) ([1]; 500 g/ha, second column): 34%
Yield (kg/ha) ([2]; 750 g/ha): 33 000 kg/ha
Yield gain (%) ([2]; 750 g/ha): 16.8%
Score for the disease (percentage of foliar surface area destroyed) ([3]; 750 g/ha, 3 DAC): 19.4%
Score for the disease (percentage of foliar surface area destroyed) ([3]; 750 g/ha, 7 DAA): 8.7%
Score for the disease (percentage of foliar surface area destroyed) ([3]; 750 g/ha, 7 DAB): 11.9%
Score for the disease (percentage of foliar surface area destroyed) ([3]; 750 g/ha, 8 DAC): 35%
Counting of the lettuce plants attacked by Sclerotinia ([4]; 750 g/ha, counting 1): 1
Counting of the lettuce plants attacked by Sclerotinia ([4]; 750 g/ha, counting 2): 2.5
Counting of the lettuce plants attacked by Sclerotinia ([4]; 750 g/ha, counting 3): 3
Counting of the lettuce plants attacked by Sclerotinia ([4]; 750 g/ha, counting 4): 4
Counting of the lettuce plants attacked by Sclerotinia ([4]; 750 g/ha, counting 5): 4
Counting of the lettuce plants attacked by Sclerotinia ([4]; 750 g/ha, counting 6): 4.8
Counting of the lettuce plants attacked by Sclerotinia ([4]; 750 g/ha, counting 7): 5.5
Counting of the lettuce plants attacked by Sclerotinia ([4]; 750 g/ha, counting 8): 5.9
Counting of the lettuce plants attacked by Sclerotinia ([4]; 750 g/ha, counting 9): 6.7
Counting of the lettuce plants attacked by Sclerotinia ([4]; 750 g/ha, counting 10): 7.4
Counting of the lettuce plants attacked by Sclerotinia ([4]; 750 g/ha, counting 11): 7.9
Score for the disease (percentage of foliar surface area destroyed) ([5]; 750 g/ha, 8 DAC): 4.38%
Score for the disease (percentage of foliar surface area destroyed) ([5]; 750 g/ha, 15 DAB): 1.75%
Score for the disease (percentage of foliar surface area destroyed) ([5]; 750 g/ha, 17 DAC): 10%

Cc1cc(C)nc(Nc2ccccc2)n1 [pyrimethanil]
Amount of diseased leaves (%) ([1]; 600 g/ha, first column): 21%
Amount of diseased leaves (%) ([1]; 600 g/ha, second column): 16%
Yield (kg/ha) ([2]; 600 g/ha): 31 500 kg/ha
Yield gain (%) ([2]; 600 g/ha): 11.5%
Score for the disease (percentage of foliar surface area destroyed) ([3]; 600 g/ha, 3 DAC): 31.2%
Score for the disease (percentage of foliar surface area destroyed) ([3]; 600 g/ha, 7 DAA): 11.9%
Score for the disease (percentage of foliar surface area destroyed) ([3]; 600 g/ha, 7 DAB): 21.9%
Score for the disease (percentage of foliar surface area destroyed) ([3]; 600 g/ha, 8 DAC): 57.5%
Counting of the lettuce plants attacked by Sclerotinia ([4]; 800 g/ha, counting 1): 3.5
Counting of the lettuce plants attacked by Sclerotinia ([4]; 800 g/ha, counting 2): 5.5
Counting of the lettuce plants attacked by Sclerotinia ([4]; 800 g/ha, counting 3): 8
Counting of the lettuce plants attacked by Sclerotinia ([4]; 800 g/ha, counting 4): 14.8
Counting of the lettuce plants attacked by Sclerotinia ([4]; 800 g/ha, counting 5): 18
Counting of the lettuce plants attacked by Sclerotinia ([4]; 800 g/ha, counting 6): 22.8
Counting of the lettuce plants attacked by Sclerotinia ([4]; 800 g/ha, counting 7): 26
Counting of the lettuce plants attacked by Sclerotinia ([4]; 800 g/ha, counting 8): 29.4
Counting of the lettuce plants attacked by Sclerotinia ([4]; 800 g/ha, counting 9): 31.4
Counting of the lettuce plants attacked by Sclerotinia ([4]; 800 g/ha, counting 10): 33.9
Counting of the lettuce plants attacked by Sclerotinia ([4]; 800 g/ha, counting 11): 35.8
Score for the disease (percentage of foliar surface area destroyed) ([5]; 600 g/ha, 8 DAC): 8.75%
Score for the disease (percentage of foliar surface area destroyed) ([5]; 600 g/ha, 15 DAB): 3.44%
Score for the disease (percentage of foliar surface area destroyed) ([5]; 600 g/ha, 17 DAC): 13.13%
